Data: ChEMBL document CHEMBL5465560, “Selectivity Literature for EUbOPEN Chemogenomic Library” (2024)

Tests used:
[1] = target: Tyrosine-protein kinase Fes/Fps (Homo sapiens) (UniProt P07332); experiment: Selectivity interaction (KinomeScan (DiscoverX)) EUB0000595a FES; settings: at 10 µM
[2] = target: DNA (cytosine-5)-methyltransferase 3A (Homo sapiens) (UniProt Q9Y6K1); settings: at 1 µM
[3] = target: Dual specificity testis-specific protein kinase 1 (Homo sapiens) (UniProt Q15569); experiment: Selectivity interaction (KinomeScan (DiscoverX)) EUB0000695a TESK1; settings: at 100 nM
[4] = target: Serine/threonine-protein kinase WNK2 (Homo sapiens) (UniProt Q9Y3S1); experiment: Selectivity interaction (KinomeScan (DiscoverX)) EUB0000695a WNK2; settings: at 100 nM
[5] = target: Tyrosine-protein kinase JAK2 (Homo sapiens, UniProt O60674); experiment: Selectivity interaction (KinomeScan (DiscoverX)) EUB0001079a JAK2; settings: at 1 µM
[6] = target: Dual specificity tyrosine-phosphorylation-regulated kinase 1B (Homo sapiens, UniProt Q9Y463); experiment: Selectivity interaction (KinomeScan (DiscoverX)) EUB0000666a DYRK1B; settings: at 10 µM
[7] = target: T1, Muscarinic acetylcholine receptor M1 (Homo sapiens) (UniProt P11229); experiment: Selectivity interaction (Safety Panel 44tm (Eurofins)) EUB0000162b CHRM1; settings: at 10 µM
T1 sequence (whole entry): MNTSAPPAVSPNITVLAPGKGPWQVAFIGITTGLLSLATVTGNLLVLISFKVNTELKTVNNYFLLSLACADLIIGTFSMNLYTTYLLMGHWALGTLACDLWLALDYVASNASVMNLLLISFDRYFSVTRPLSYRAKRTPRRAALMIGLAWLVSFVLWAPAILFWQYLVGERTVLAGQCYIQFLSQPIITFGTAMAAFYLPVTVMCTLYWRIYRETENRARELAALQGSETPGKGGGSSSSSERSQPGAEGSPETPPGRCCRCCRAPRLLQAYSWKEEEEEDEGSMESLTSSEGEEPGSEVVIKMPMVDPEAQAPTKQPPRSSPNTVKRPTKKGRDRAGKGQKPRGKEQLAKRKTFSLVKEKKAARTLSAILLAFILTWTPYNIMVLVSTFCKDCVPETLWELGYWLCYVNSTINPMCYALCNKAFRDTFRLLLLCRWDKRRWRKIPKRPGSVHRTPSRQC

[8] = target: Phosphatidylinositol 4,5-bisphosphate 3-kinase catalytic subunit gamma isoform (Homo sapiens) (UniProt P48736); experiment: Selectivity interaction (KinomeScan (DiscoverX)) EUB0001049a PIK3CG; settings: at 1 µM
[9] = target: T2, Serine/threonine-protein kinase BRSK1 (Homo sapiens) (UniProt Q8TDC3); experiment: Selectivity interaction (KinomeScan (DiscoverX)) EUB0001049a BRSK1; settings: at 1 µM
T2 sequence (whole entry): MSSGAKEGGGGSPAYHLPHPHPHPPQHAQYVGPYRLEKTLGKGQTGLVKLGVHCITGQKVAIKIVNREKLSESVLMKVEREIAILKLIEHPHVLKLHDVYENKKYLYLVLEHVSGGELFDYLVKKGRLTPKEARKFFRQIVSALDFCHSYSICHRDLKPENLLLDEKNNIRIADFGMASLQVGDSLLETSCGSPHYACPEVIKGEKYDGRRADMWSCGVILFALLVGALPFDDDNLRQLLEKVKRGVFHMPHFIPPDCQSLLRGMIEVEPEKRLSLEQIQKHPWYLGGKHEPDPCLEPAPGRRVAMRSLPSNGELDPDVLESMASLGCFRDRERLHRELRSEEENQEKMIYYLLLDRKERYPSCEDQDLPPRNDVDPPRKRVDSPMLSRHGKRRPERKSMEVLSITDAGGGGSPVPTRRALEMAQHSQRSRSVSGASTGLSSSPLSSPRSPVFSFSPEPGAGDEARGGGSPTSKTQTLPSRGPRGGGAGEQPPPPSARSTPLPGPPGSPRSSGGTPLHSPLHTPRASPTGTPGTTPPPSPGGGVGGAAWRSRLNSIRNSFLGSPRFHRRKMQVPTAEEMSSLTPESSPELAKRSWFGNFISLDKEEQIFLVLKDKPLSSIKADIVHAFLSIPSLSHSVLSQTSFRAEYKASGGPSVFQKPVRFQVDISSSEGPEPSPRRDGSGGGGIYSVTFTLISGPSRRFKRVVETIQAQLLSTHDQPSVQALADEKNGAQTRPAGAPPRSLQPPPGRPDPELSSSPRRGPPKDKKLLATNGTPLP

[10] = target: Homeodomain-interacting protein kinase 3 (Homo sapiens, UniProt Q9H422); experiment: Selectivity interaction (ProQinase) EUB0000171b HIPK3
[11] = target: Maternal embryonic leucine zipper kinase (Homo sapiens) (UniProt Q14680); experiment: Selectivity interaction (ProQinase) EUB0000171b MELK
[12] = target: SRSF protein kinase 2 (Homo sapiens) (UniProt P78362); experiment: Selectivity interaction (ProQinase) EUB0000171b SRPK2
[13] = target: Serine/threonine-protein kinase MARK1 (Homo sapiens) (UniProt Q9P0L2); experiment: Selectivity interaction (KinomeScan (DiscoverX)) EUB0001619a MARK1; settings: at 1 µM
[14] = target: Serine/threonine-protein kinase tousled-like 2 (Homo sapiens) (UniProt Q86UE8); experiment: Selectivity interaction (ActivX KiNativ screen (ex vivo kinase selectivity in human PBMCs)) EUB0001619a TLK2; type: cell-based; settings: PBMC, at 1 µM
[15] = target: Angiopoietin-1 receptor (Homo sapiens) (UniProt Q02763); experiment: Selectivity interaction (KinaseProfiler screening (Millipore)) EUB0000601a TEK; settings: at 3 µM
[16] = target: Bone morphogenetic protein receptor type-1B (Homo sapiens, UniProt O00238); experiment: Selectivity interaction (KinomeScan (DiscoverX)) EUB0000607a BMPR1B; settings: at 10 µM
[17] = target: Serine/threonine-protein kinase N2 (Homo sapiens, UniProt Q16513); experiment: Selectivity interaction (KinomeScan (DiscoverX)) EUB0000607a PKN2; settings: at 10 µM
[18] = target: Serine/threonine-protein kinase B-raf (Homo sapiens) (UniProt P15056); experiment: Selectivity interaction (Kinase panel (Invitrogen)) EUB0000639a BRAF; settings: at 200 nM
[19] = target: Fibroblast growth factor receptor 1 (Homo sapiens, UniProt P11362); experiment: Selectivity interaction (KinomeScan (DiscoverX)) EUB0000655a FGFR1; settings: at 10 µM

Chain of Maternal embryonic leucine zipper kinase (Homo sapiens) (Q14680 whole entry, looked up): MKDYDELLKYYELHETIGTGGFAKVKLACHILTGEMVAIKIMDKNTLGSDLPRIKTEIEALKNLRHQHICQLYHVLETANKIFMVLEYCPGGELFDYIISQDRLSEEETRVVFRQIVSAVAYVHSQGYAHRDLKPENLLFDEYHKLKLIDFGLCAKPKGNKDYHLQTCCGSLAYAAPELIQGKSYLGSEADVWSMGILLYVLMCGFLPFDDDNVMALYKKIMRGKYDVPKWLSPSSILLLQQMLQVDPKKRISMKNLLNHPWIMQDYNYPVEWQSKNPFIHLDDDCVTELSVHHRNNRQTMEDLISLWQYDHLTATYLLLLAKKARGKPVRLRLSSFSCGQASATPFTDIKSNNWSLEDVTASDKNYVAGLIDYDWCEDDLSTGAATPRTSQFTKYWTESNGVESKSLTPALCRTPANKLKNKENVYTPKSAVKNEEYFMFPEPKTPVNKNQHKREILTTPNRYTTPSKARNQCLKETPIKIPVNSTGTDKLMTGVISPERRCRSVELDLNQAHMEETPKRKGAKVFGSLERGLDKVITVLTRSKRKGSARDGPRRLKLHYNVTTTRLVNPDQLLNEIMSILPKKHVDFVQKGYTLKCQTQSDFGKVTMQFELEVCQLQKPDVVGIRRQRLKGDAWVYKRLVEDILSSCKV
Chain of Homeodomain-interacting protein kinase 3 (Q9H422 whole entry, looked up): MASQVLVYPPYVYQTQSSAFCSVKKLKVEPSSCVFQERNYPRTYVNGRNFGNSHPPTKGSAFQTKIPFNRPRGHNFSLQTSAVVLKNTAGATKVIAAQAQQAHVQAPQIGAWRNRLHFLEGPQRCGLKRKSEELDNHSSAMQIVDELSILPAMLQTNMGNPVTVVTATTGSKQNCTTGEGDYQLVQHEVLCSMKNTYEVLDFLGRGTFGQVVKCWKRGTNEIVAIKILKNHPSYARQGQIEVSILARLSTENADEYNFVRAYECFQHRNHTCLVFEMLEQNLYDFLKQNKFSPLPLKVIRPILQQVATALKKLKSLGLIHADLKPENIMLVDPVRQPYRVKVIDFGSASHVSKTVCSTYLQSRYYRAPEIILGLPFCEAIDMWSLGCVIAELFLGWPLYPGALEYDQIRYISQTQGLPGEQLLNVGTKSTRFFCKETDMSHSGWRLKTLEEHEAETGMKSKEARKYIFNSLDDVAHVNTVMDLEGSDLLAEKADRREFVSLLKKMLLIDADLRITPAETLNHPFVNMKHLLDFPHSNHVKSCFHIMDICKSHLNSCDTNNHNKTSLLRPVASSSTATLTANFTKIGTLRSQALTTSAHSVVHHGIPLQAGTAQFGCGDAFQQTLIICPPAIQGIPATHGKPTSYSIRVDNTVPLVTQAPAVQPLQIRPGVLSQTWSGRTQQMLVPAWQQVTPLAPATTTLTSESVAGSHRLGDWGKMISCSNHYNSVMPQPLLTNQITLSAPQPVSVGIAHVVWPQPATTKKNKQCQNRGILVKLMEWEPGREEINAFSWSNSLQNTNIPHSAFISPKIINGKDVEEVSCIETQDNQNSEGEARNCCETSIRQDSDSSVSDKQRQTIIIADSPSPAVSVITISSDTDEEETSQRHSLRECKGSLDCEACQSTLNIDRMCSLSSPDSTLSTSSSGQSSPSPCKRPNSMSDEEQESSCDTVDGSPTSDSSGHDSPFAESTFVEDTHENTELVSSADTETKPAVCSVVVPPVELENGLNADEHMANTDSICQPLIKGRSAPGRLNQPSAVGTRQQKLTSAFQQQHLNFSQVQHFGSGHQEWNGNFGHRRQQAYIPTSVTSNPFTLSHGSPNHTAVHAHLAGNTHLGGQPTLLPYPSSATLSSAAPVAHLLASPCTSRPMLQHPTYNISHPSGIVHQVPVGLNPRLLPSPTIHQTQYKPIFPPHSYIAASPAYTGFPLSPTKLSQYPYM
Chain of SRSF protein kinase 2 (Homo sapiens) (P78362 whole entry, looked up): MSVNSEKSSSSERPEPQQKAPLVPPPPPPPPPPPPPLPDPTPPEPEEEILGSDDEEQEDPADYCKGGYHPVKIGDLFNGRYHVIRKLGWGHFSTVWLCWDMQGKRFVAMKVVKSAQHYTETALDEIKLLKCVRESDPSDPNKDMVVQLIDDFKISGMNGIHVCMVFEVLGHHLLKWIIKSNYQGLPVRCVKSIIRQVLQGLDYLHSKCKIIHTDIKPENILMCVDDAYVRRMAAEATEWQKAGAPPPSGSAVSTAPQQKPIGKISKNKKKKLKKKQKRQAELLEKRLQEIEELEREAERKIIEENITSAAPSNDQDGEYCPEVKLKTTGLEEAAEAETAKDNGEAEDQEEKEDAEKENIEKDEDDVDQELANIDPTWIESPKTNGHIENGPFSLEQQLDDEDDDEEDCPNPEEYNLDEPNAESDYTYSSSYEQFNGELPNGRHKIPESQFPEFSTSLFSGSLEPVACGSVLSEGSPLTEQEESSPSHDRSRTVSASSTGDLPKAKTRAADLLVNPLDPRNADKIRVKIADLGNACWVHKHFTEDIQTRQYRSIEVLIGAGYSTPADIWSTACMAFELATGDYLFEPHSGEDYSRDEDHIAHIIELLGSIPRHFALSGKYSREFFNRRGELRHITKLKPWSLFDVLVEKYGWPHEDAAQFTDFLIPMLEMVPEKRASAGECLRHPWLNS
Chain of Serine/threonine-protein kinase tousled-like 2 (Homo sapiens) (Q86UE8 whole entry, looked up): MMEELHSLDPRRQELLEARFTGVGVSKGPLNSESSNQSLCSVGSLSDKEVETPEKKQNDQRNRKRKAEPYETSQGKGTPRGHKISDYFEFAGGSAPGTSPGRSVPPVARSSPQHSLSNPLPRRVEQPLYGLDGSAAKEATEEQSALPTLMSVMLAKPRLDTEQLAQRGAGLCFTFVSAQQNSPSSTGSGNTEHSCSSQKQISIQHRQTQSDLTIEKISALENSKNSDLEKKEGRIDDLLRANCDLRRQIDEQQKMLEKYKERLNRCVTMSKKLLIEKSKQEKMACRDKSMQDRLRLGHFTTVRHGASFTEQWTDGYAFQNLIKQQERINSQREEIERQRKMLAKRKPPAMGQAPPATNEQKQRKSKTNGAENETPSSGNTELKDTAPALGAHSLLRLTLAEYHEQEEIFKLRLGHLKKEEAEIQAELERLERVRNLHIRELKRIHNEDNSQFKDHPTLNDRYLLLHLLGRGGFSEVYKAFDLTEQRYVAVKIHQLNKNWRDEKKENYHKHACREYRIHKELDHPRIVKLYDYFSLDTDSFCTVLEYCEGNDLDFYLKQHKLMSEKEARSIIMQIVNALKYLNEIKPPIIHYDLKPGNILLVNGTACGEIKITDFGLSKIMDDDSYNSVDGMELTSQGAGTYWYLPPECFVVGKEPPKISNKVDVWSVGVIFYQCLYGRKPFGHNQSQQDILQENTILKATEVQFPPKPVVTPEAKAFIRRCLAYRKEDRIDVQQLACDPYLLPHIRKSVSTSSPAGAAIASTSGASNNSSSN
Chain of Dual specificity testis-specific protein kinase 1 (Homo sapiens) (Q15569 whole entry, looked up): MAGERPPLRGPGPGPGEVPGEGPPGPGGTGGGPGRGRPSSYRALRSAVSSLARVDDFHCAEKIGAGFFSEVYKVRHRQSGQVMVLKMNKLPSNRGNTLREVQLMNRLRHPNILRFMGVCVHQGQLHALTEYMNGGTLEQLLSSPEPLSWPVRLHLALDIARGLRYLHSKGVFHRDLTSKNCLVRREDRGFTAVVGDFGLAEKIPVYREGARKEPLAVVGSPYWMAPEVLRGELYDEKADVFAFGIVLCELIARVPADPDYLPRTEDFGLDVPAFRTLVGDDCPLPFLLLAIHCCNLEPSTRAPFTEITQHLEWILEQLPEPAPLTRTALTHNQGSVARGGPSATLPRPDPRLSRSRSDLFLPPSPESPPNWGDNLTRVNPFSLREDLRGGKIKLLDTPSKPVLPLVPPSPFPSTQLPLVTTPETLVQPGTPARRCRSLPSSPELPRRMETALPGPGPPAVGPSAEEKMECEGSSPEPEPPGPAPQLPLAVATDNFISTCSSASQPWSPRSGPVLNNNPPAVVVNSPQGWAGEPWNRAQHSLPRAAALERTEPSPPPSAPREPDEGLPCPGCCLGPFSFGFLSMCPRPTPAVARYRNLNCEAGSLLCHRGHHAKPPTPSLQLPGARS
Chain of Phosphatidylinositol 4,5-bisphosphate 3-kinase catalytic subunit gamma isoform (Homo sapiens) (P48736 whole entry, looked up, canonical isoform): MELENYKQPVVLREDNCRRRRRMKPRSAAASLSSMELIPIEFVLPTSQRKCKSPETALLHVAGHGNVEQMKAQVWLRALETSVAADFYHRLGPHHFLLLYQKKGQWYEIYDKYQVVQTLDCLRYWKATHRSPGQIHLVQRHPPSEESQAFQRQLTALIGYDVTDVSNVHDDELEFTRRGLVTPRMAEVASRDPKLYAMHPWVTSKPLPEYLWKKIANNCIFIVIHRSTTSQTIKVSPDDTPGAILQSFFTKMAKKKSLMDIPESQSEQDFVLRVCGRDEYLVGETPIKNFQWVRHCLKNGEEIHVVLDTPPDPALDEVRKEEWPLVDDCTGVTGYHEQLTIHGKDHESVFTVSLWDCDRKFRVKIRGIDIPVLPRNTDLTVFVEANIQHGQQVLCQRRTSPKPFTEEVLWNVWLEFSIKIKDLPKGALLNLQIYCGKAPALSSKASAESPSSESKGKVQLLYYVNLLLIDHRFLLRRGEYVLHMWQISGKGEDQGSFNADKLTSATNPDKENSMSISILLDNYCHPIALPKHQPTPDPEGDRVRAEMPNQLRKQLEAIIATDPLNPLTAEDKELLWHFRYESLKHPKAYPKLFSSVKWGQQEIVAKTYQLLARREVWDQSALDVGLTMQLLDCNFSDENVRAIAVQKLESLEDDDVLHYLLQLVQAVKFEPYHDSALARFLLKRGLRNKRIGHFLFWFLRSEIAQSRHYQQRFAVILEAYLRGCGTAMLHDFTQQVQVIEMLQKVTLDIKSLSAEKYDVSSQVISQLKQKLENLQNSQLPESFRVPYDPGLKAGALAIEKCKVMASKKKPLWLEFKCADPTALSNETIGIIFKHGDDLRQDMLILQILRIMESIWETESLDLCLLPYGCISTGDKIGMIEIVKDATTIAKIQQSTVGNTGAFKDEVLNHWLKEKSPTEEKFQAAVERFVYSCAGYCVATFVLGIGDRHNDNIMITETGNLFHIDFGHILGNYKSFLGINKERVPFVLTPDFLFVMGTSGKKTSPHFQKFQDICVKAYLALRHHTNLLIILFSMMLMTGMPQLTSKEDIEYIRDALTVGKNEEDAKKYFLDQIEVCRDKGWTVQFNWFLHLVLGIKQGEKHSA

COCC(=O)NC/C=C/c1ccc2ncnc(Nc3ccc(Oc4ccc(C)nc4)c(C)c3)c2c1 [CP-724714]
% of control [1]: 100%

CNCCN1CCC(c2cc(CN(C)C(=O)c3cccc(Oc4ccccc4)c3)ccn2)CC1
% activity [2]: > 90%

Cc1cc(F)c(C(=O)Nc2cccc(-c3nncn3C(C)C)n2)cc1-n1cnc(C2CC2)c1
% of control [3]: 85%
% of control [4]: 78%

Nc1cnc(N2CCc3cc(S(=O)(=O)Nc4c(F)cc(Cl)cc4F)cc(N4CCCC4=O)c32)nc1 [TP-020n]
% of control [5]: 100%

O=C(NOC[C@H](O)CO)c1ccc(F)c(F)c1Nc1ccc(I)cc1F
% of control [6]: 98%

CN(C)C(=O)Cn1cc(-c2ccc(-c3cncc4ccccc34)cc2)cn1
% of control [7]: 87%

COc1cc(Nc2nc(C)cc(-c3cnn4nc(OC)ccc34)n2)cc(C(F)(F)F)c1
% of control [8]: 93%
% of control [9]: 86%

C=CC(=O)Nc1cccc(C(=O)Nc2ccc(Nc3cc(-c4[nH]c(SC)nc4C)ccn3)cc2)c1
% of control ([10]; at 1 µM): 93%
% of control ([10]; at 5 µM): 90%
% of control ([11]; at 1 µM): 95%
% of control ([11]; at 5 µM): 70%
% of control ([12]; at 1 µM): 82%
% of control ([12]; at 5 µM): 75%

N#Cc1cccc(-c2c[nH]c3ncnc(N4CCOCC4)c23)c1
% of control [13]: 91%
% of inhibition [14]: -21%

CCc1cc(Nc2nccc(-c3c(-c4ccc(OC)c(C(=O)Nc5c(F)cccc5F)c4)nc4ccccn34)n2)c(OC)cc1N1CCC(N2CCN(S(C)(=O)=O)CC2)CC1
% of inhibition [15]: 41%

CNC(=O)Nc1ccc(-c2nc(N3CC4CCC(C3)O4)c3cnn(C4CCC5(CC4)OCCO5)c3n2)cc1
% of control [16]: 93%
% of control [17]: 83%

CC[C@@H]1[C@H](F)C(=O)N[C@@H]1COc1nccc2cc(C(N)=O)c(OC)cc12 [ZIMLOVISERTIB]
% of inhibition [18]: 0.492%

CN(C)CCOc1ccc(-c2nc(-c3ccncc3)c(-c3ccc4c(c3)CC/C4=N\O)[nH]2)cc1
% of control [19]: 99%
